Data set [1] concerns the target T1, IκB kinase (IKK enzyme preparation) (Homo sapiens, UniProt O14920).
T1 sequence (O14920 1-756): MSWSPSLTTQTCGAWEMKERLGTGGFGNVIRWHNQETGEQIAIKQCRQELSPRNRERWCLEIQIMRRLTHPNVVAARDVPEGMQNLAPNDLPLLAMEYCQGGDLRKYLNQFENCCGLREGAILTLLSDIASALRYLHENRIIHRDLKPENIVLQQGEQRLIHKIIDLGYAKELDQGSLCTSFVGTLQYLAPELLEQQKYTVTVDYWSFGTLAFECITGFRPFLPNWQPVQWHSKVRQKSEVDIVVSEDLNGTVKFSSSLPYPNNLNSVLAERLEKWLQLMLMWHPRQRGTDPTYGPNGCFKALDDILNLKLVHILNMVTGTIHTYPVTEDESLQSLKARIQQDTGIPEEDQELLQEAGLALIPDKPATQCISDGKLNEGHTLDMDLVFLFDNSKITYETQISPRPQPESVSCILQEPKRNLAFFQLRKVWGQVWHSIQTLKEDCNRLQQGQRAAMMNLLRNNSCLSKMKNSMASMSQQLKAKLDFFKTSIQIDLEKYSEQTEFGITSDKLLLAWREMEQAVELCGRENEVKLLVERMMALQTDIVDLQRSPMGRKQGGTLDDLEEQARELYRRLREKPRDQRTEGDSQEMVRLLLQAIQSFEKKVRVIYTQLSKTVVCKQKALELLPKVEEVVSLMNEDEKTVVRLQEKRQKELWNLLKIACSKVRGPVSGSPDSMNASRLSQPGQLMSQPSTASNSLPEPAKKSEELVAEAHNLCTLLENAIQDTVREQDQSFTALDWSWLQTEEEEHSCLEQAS
Kind of data set: IKK-Enzyme ELISA. The class given is biochemical. As for the experimental part:
The assay buffer has the following composition (50 mM HEPES, 10 mM MgCl2, 10 mM β-Glycerophosphate, 2 μM Microcystin-LR, 0.01% NP-40, 5 mM DTT).
The IKK enzyme preparation was diluted 1:50 (in-house-made preparation) plus test compound in DMSO (final concentration in well: 2%).
The assay procedures were as follows:
Incubation of enzyme and compound for 30 min;
pSer36-IkB Peptide (Substrate): 40 μM;
Incubation for 45 min and Addition of anti-pSer32-pSer36-IkB Peptid-antibody;
Incubation for 45 min and transfer to protein-G-coated plate;
Incubation for 90 min followed by 3× washing;
Addition of streptavidin-HRP, then incubation 45 min followed by 6× washing;
Addition of TMB and Incubation for 15 min; and
Stop solution and read using photometer.
(ELISA stands for enzyme-linked immunosorbent assay.)

The test system of data set [2] is IL-1β-induced NF-κB activation. The experiment in a line: NF-κB-Luciferase Reporter Mouse Model, dose response determination. The class given is in vivo, Balb/c female mice. As to conditions: for effect on IL-1β-induced NF-κB activity: intranasal dosing 0.3-10 mg/kg, FIGS. 1 and 2. As for the experimental part: A. NF-κB-Luciferase Reporter Mouse Model Methods employed for mouse imaging studies with Compound (A) and Compound (B). General Description Compounds were used as nanomilled suspensions in 0.2% Tween-80 in PBS and were dosed through the intranasal route. Intranasal drug and inflammatory stimulus administration: Mice are anesthetized in 4% is isoflurane gas in oxygen. A volume of 25 μl is applied to each nostril and the mice are allowed to breathe in the suspension. Balb/c female mice at 6-8 weeks of age were used for studies in which AdV-NFκB-luciferase reporter was instilled in the lung. To imagine mice, they are anesthetized with 4% isoflurane in oxygen. Luciferin is delivered i.p. at a dose of 150 mg/kg. 10 minutes after luciferin injection, the animals are imaged in an IVIS200 system (Xenogen) with a one-minute bioluminescent exposure. Alternatively, 10-15 minutes post luciferin administration, mice are rapidly euthanized and internal tissues are dissected and imaged ex vivo. B. Dose Response Determination 1-2×10^8 pfu adenovirus-NFκB-luciferase is delivered intranasally 3-5 days prior to stimulation (i.n.) with an inflammatory stimulus (IL-1β or LPS). Animals are dosed i.n. with 0.3-10 mg/kg of compound 30 min—1 h prior to challenge with 0.5 μg LPS or 50 ng IL-1β. Animals are then imaged once or several times from 1 h to 24 h after the inflammatory stimulus is administered.
In general terms: A reporter such as luciferase makes a cellular process visible.

A short description of data set [3]: Pharmacokinetic procedures: compound levels in lung and plasma after intra-tracheal instillation. It counts as in vivo, Male Hartley guinea pigs. The settings on record: for systemic exposure after intratracheal administration: i.t. administration; for Kp at 1 h: male, Hartley, guinea pig, lung and plasma, other: intra-tracheal instillation, i.t. instillation 0.01-0.3 mg/kg, 1 h after dosing, depending on the dose, read-out: lung to plasma ratio. Here is the method:
C. Pharmacokinetic Procedures
Male Hartley guinea pigs (450-550 g) previously sensitized with ovalbumin were used for the determination of compound levels in lung and plasma. Nanomilled suspensions of Compound (A) and Compound (B) were dosed via intra-tracheal instillation at 0.01, 0.03, 0.1 and 0.3 mg/kg. One hour after dosing, animals were euthanized (Euthasol), and 1 mL blood samples were obtained by cardiac puncture and collected into heparin-coated syringes. Plasma was separated from the cellular component of the blood by centrifugation, and stored at −80° C. until assayed. Lungs were dissected out, blotted dry, weighted and stored in 20-25 mL glass vials individually at −80° C. until assayed for compound levels.
The lung to plasma ratio for Compound (A) ranges from 143 to 284 (depending on the dose) whereas the lung to plasma ratio for Compound (B) ranges from 13 to 44 (depending on the dose). These ratios were obtained by dividing the lung compound levels to that of the corresponding plasma levels at the same dose.

Where [4] appears, read: read-out: IC50 (nM) 1 mM ATP, 1 mM ATP.
Where [5] appears, read: read-out: IC50 (nM) 50 μM ATP, 50 μM ATP.

Where two headings read alike, the source gives them in different places.

Broadly, the IC50 is the concentration that inhibits the measured activity by half. The term ED50 denotes the dose at which the effect has come halfway, by size or by number of responders.

As for `CNc1nccc(-c2cc3cc(C(=O)N[C@@H](CN(c4ccccc4)c4ncccn4)C(=O)O)ccc3[nH]2)n1` [(D)], the IC50 in data set [1] (setting [4]) came out at 3.8 nM.

As for `CNc1nccc(-c2cc3cc(C(=O)N[C@@H](CN(c4ccccc4)c4ccccn4)C(=O)OC)ccc3[nH]2)n1` [(C)], the IC50 was determined as 16.8 nM in data set [1] (setting [5]) and 378 nM in data set [1] (setting [4]).

Consider `CNc1nccc(-c2cc3cc(C(=O)N[C@@H](CN(c4ccccc4)c4ccccn4)C(=O)NOC)ccc3[nH]2)n1` [Compound (B)], for which the “effect on IL-1β-induced NF-κB activity” value in data set [2] is “inhibited in a dose-dependent manner”. Moreover, in data set [1] (setting [5]), the IC50 is 0.8 nM. The IC50 in data set [1] (setting [4]) amounted to 56.4 nM. The “lung exposure after i.t. instillation” value in data set [3] (0.3 mg/kg i.t., FIG. 3) is reported as “low relative to Compound (A)”. Moreover, in data set [3], the “systemic exposure after oral administration” value is “highly systemically available”, the “systemic exposure after intratracheal administration” value is reported as “highly systemically distributed” and the Kp at 1 h lay in the range of 13 to 44.

For the molecule `CNc1nccc(-c2cc3cc(C(=O)N[C@@H](CN(c4ccccc4)c4ccccn4)C(=O)O)ccc3[nH]2)n1` [Compound (A), 2-{[2-(2-Methylamino-pyrimidin-4-yl)-1H-indole-5-carbonyl]-amino}-3-(phenyl-pyridin-2-yl-amino)-propionic acid], in data set [2] (Mus musculus, intranasal nanomilled suspension, 0.3-10 mg/kg, IL-1β challenge, lung bioluminescence, read-out: estimated ED50, IL-1β-induced NF-κB activation), the median effective dose (ED50) was ~1 mg/kg. In data set [2], the “effect on IL-1β-induced NF-κB activity” value is listed as “inhibited in a dose-dependent manner”. Moreover, the IC50 in data set [1] (setting [5]) is 0.4 nM. Also, in data set [1] (setting [4]), the IC50 is 0.08 nM. Besides, in data set [3], the “systemic exposure after oral administration” value is listed as “low systemic exposure”, the “systemic exposure after intratracheal administration” value is given as “low systemic exposure” and the Kp at 1 h was 143 to 284.
